Measured values: ChEMBL document CHEMBL3046853, “Synthesis, antimicrobial evaluation, ot-QSAR and mt-QSAR studies of 2-amino benzoic acid derivatives” (2012)
Calls of active or inactive are those of the source. The rule behind the calls is not given here.

Columns and labels:
Aspergillus niger [1] = assay: Fungicidal activity against Aspergillus niger after 7 days by serial dilution technique; format: functional, organism-based
Candida albicans [2] = assay: Fungicidal activity against Candida albicans; format: functional, organism-based
Escherichia coli [3] = assay: Bactericidal activity against Escherichia coli; format: functional, organism-based
Bacillus subtilis [4] = assay: Bactericidal activity against Bacillus subtilis; format: functional, organism-based
Staphylococcus aureus [5] = assay: Bactericidal activity against Staphylococcus aureus; format: functional, organism-based
Candida albicans [6] = assay: Antifungal activity against Candida albicans after 2 days by serial dilution technique; format: functional
Aspergillus niger [7] = assay: Antifungal activity against Aspergillus niger after 7 days by serial dilution technique; format: functional
Escherichia coli [8] = assay: Antibacterial activity against Escherichia coli after 24 hr by serial dilution technique; format: functional
Bacillus subtilis [9] = assay: Antibacterial activity against Bacillus subtilis after 24 hr by serial dilution technique; format: functional
Staphylococcus aureus [10] = assay: Antibacterial activity against Staphylococcus aureus after 24 hr by serial dilution technique; format: functional

Row | SMILES | Activity (Aspergillus niger [1]) | Activity (Candida albicans [2]) | Activity (Escherichia coli [3]) | Activity (Bacillus subtilis [4]) | Activity (Staphylococcus aureus [5]) | -logMIC (Candida albicans [6]) | -logMIC (Aspergillus niger [7]) | -logMIC (Escherichia coli [8]) | -logMIC (Bacillus subtilis [9]) | -logMIC (Staphylococcus aureus [10])
1 | Cc1ccc(NC(=O)c2ccccc2N)c(C)c1 | Active | Active | Active | Active | Active | 1.28 | 1.28 | 1.28 | 2.19 | 1.28
2 | COc1ccccc1NC(=O)c1ccccc1N | Active | Active | Active | Active | Active | 1.29 | 1.29 | 1.2 | 1.59 | 1.29
3 | OC(Cn1cncn1)(Cn1cncn1)c1ccc(F)cc1F [FLUCONAZOLE] | – | – | – | – | – | 2.64 | 2.64 | – | – | –
4 | CCn1cc(C(=O)O)c(=O)c2cc(F)c(N3CCNCC3)cc21 [NORFLOXACIN] | – | – | – | – | – | – | – | 3.33 | 3.33 | 3.33
5 | Nc1ccccc1C(=O)N(c1ccccc1)c1ccccc1 | Active | Active | Active | Active | Active | 1.36 | 1.66 | 1.66 | 2.27 | 1.36
6 | CCOC(=O)c1ccccc1N [ETHYL ANTHRANILATE] | Active | Active | Active | Active | Active | 1.12 | 1.72 | 1.72 | 1.91 | 1.12
7 | Nc1ccccc1C(=O)N1CCOCC1 [(2-AMINOPHENYL)(MORPHOLINO)METHANONE] | Active | Active | Active | Active | Active | 1.22 | 1.22 | 1.52 | 1.22 | 1.22
8 | CCCNC(=O)c1ccccc1N | Active | Active | Active | Active | Active | 1.12 | 1.15 | 1.46 | 2.06 | 1.15
9 | CCCCN(CCCC)C(=O)c1ccccc1N | Active | Active | Active | Active | Active | 1.3 | 1.6 | 1.6 | 2.2 | 1.3
10 | Nc1ccccc1C(=O)Nc1ccccc1 | Active | Active | Active | Active | Active | 1.23 | 1.23 | 1.23 | 2.13 | 1.23
11 | Cc1ccc(NC(=O)c2ccccc2N)cc1 | Active | Active | Active | Active | Active | 1.26 | 1.26 | 1.56 | 2.16 | 1.26
12 | CCCCNC(=O)c1ccccc1N | Active | Active | Active | Active | Active | 1.19 | 1.2 | 1.19 | 1.49 | 1.2
13 | COc1ccc(NC(=O)c2ccccc2N)cc1 | Active | Active | Active | Active | Active | 1.29 | 1.29 | 1.29 | 2.19 | 1.29
14 | Cc1ccc(C)c(NC(=O)c2ccccc2N)c1 | Active | Active | Active | Active | Active | 1.3 | 1.28 | 1.28 | 2.19 | 1.28
15 | NC(=O)c1ccccc1N [ANTHRANILAMIDE] | Active | Active | Active | Active | Active | 1.04 | 1.64 | 1.04 | 1.94 | 1.04
16 | Cc1cccc(NC(=O)c2ccccc2N)c1 | Active | Active | Active | Active | Active | 1.26 | 1.26 | 1.26 | 2.16 | 1.26
17 | Nc1ccccc1C(=O)Nc1cccc(Cl)c1 | Active | Active | Active | Active | Active | 1.3 | 1.3 | 1.6 | 2.2 | 1.3
18 | Nc1ccccc1C(=O)Oc1cccc2cccnc12 | Active | Active | Active | Active | Active | 1.63 | 1.63 | 1.8 | 1.93 | 1.93
19 | Nc1ccccc1C(=O)Nc1ccc2ccccc2c1 | Active | Active | Active | Active | Active | 1.32 | 1.62 | 1.62 | 2.23 | 1.32
20 | CCCCCCOC(=O)c1ccccc1N [HEXYL 2-AMINOBENZOATE] | Active | Active | Active | Active | Active | 1.25 | 1.85 | 1.85 | 2.15 | 1.25
21 | CN(C)C(=O)c1ccccc1N | Active | Active | Active | Active | Active | 0.82 | 1.42 | 1.42 | 2.02 | 0.82
22 | Nc1ccccc1C(=O)Nc1ccccc1F | Active | Active | Active | Active | Active | 1.27 | 1.27 | 1.27 | 2.17 | 1.27
23 | CCCCCCCOC(=O)c1ccccc1N [HEPTYL 2-AMINOBENZOATE] | Active | Active | Active | Active | Active | 1.58 | 1.58 | 1.88 | 1.88 | 1.27
24 | Cc1ccccc1NC(=O)c1ccccc1N | Active | Active | Active | Active | Active | 1.56 | 1.56 | 1.26 | 1.86 | 1.26
25 | COC(=O)c1ccccc1N [METHYL ANTHRANILATE] | Active | Active | Active | Active | Active | 1.08 | 1.08 | 1.69 | 1.99 | 1.08
26 | CCCCOC(=O)c1ccccc1N [BUTYL 2-AMINOBENZOATE] | Active | Active | Active | Active | Active | 1.19 | 1.3 | 1.79 | 2.09 | 1.2
27 | CC(C)CCOC(=O)c1ccccc1N [ISOPENTYL 2-AMINOBENZOATE] | Active | Active | Active | Active | Active | 1.22 | 1.22 | 1.82 | 2.12 | 1.22
28 | CC(C)COC(=O)c1ccccc1N [ISOBUTYL 2-AMINOBENZOATE] | Active | Active | Active | Active | Active | 0.59 | 1.06 | 1.51 | 1.79 | 0.89
29 | CCN(CC)C(=O)c1ccccc1N | Active | Active | Active | Active | Active | 1.19 | 1.49 | 1.19 | 2.09 | 1.19
